Assay results taken from patent publication US6579720B1, “Method for activity profiling compound mixtures” (BDC Pharma LLC, priority 1999, dated 2003).

Tests used:
[1] = IAM chromatography, normalized capacity factor on IAM.SM C10/C3; format: physicochemical; conditions: 15% acetonitrile + 85% 0.03 M NH4OAc buffer pH 7.4, 1 mL/min
Text: (§1) The preferred, if not only surfaces capable of measuring membrane binding constants so far are from a group of immobilized artificial membranes (IAMs). IAMs consist of a monolayer of phospholipids covalently immobilized to a silica surface. Five types of IAM surfaces are typically used: phosphatidylcholine (PC), phosphatidylethanolamine (PE), phosphatidylserine (PS), sphingomyelin (SM), and cholesterol (CL). These IAM silica surfaces are used as the stationary phase in high performance liquid chromatography (HPLC). The IAM columns can be run in parallel with one single MS detection system (multi-column LC/MS) or successively using a one-column LC/MS instrument.
(§2) Dimensions of the columns: 3.0×0.46 cm.
(§3) Wavelength of the UV detector: 220 nm.
(§4) Mobile phase composition: 15% of acetonitrile+85% of 0.03 M NH4OAc buffer (pH 7.4).
(§5) All five compounds were chromatographed on ^esterIAM.PC^C10/C3, ^esterIAM.PE^C10/C3, ^esterIAM.PS^C10/C3, IAM.SM^C10/C3 using the experimental conditions described above. A representative set of normalized capacity factor values (αk′) of these drugs are presented in Table 6 [It should be noted that these values are very much dependent on packing material quality and density, as well as mobile phase composition (particularly the pH). Thus these values are not absolute and may vary from column to column within the same column type].

[2] = IAM chromatography, normalized capacity factor on esterIAM.PE C10/C3; format: physicochemical; conditions: 15% acetonitrile + 85% 0.03 M NH4OAc buffer pH 7.4, 1 mL/min
Text: as §1, §2, §3, §4, §5

[3] = IAM chromatography, normalized capacity factor on esterIAM.PC C10/C3; format: physicochemical; conditions: 15% acetonitrile + 85% 0.03 M NH4OAc buffer pH 7.4, 1 mL/min
Text: as §1, §2, §3, §4, §5

[4] = IAM chromatography, normalized capacity factor on esterIAM.PS C10/C3; format: physicochemical; conditions: 15% acetonitrile + 85% 0.03 M NH4OAc buffer pH 7.4, 1 mL/min
Text: as §1, §2, §3, §4, §5

[5] = system: antibody of the Benzodiazepines ELISA (specific for compounds belonging to the Benzodiazepine family); experiment: Benzodiazepine ELISA (Neogen competitive ELISA test kit); format: binding; conditions: experiment C, 7-drug mixture; ELISA fingerprint compared with chromatographic fingerprints
Text: (§6) ELISA test kits were purchased from Neogen Corporation, Lexington, Ky. […] Structural features that typically produce a positive response for each of these assays are described on FIG. 11.
(§7) ELISA is a method of analysis that relies on specific interactions between antibodies and antigens to detect a variety of substances. The assay (Neogen) operates on the basis of competition between the horseradish peroxidase (HRP) enzyme conjugate and the analyte in the sample for specific binding sites on the precoated antibody microplate. The test kits used for the experiment are 96-well plates precoated with a specific antibody. As described in FIG. 12, the sample or standard solution is first added to the precoated antibody microplate. Next, the diluted enzyme conjugate is added and the mixture is shaken and then incubated at room temperature for one hour. During incubation, competition for binding sites on the microplate is taking place. The plate is then washed removing all unbound material. The bound enzyme conjugate is detected by the addition of a tetramethylbenzidine (TMB) based substrate which generates an optimal color after 30 minutes. […] The extent of color development is inversely proportional to the amount of analyte in the sample or standard. […] Typically, the sensitivity of the selected ELISA assays ranges from ˜0.1 to 20-30 ng/mL depending on the substrate. […]

[6] = system: antibody of the Haloperidol ELISA (specific for Haloperidol); experiment: Haloperidol ELISA (Neogen competitive ELISA test kit); format: binding
Text: as §6, §7

tricyclic antibody = experiment: Tricyclic ELISA (Neogen competitive ELISA test kit); format: binding; conditions: experiment C, 7-drug mixture; ELISA fingerprint compared with chromatographic fingerprints
Text: as §6, §7

| Compound | IAM.SM (αk′) [1] | IAM.PE (αk′) [2] | IAM.PC (αk′) [3] | IAM.PS (αk′) [4] | Benzodiazepine ELISA activity assigned to compound [5] | Haloperidol ELISA activity assigned to compound ([6]; experiment B, 70-drug mixture, activity profile compared with chromatographic fingerprints) | Haloperidol ELISA activity assigned to compound ([6]; experiment C, 7-drug mixture, ELISA fingerprint compared with chromatographic fingerprints) | Tricyclic ELISA activity assigned to compound (tricyclic antibody) |
| --- | --- | --- | --- | --- | --- | --- | --- | --- |
| CCn1cc(C(=O)O)c(=O)c2cc(F)c(N3CCNCC3)cc21 [Norfloxacin] | 2.09 | 1.31 | 0.64 | 8.09 | – | – | – | – |
| CN1C(=O)CN=C(c2ccccc2)c2cc(Cl)ccc21 [Diazepam] | – | – | – | – | detected by the Benzodiazepine ELISA assay | – | – | – |
| O=C(CCCN1CCC(O)(c2ccc(Cl)cc2)CC1)c1ccc(F)cc1 [Haloperidol] | – | – | – | – | – | activity should be assigned to Haloperidol | only matches the chromatographic fingerprint of Haloperidol | – |
| Cc1cn([C@H]2C[C@H](N=[N+]=[N-])[C@@H](CO)O2)c(=O)[nH]c1=O [AZT] | 0.26 | 0.76 | 0.36 | 0.36 | – | – | – | – |
| CCN(CC)C(=O)c1cccnc1 [Nikethamide] | 0.30 | 1.55 | 0.33 | 0.61 | – | – | – | – |
| Olazoline | 0.49 | 1.19 | 0.52 | 4.72 | – | – | – | – |
| COc1cc(CCN)cc(OC)c1OC [Mescaline] | 0.49 | 1.95 | 0.62 | 11.39 | – | – | – | – |
| CN1CCCN=C1COC(=O)C(O)(c1ccccc1)C1CCCCC1 (stereo not drawn) [Oxyphencyclimine] | – | – | – | – | – | – | – | detected |
